{
  "source": "ChEMBL document CHEMBL6092141",
  "about": "“Discovery of a proteolysis targeting chimera (PROTAC) as a potent regulator of FOXP3” (2024)",
  "key": {"[1]": {"experiment": "Immunomodulatory activity in anti-CD3/CD28-induced C57BL/6 mouse CD4+ T cells isolated from spleen/lymph nodes assessed as reduction in foxp3+ CD4+ IL2/TGF-beta induced T regulatory cells at 2 uM incubated for 48 hrs by fluorescence activated cell sorting analysis (reference value: 6.56 %)", "assay_type": "functional", "design": "scale not given: the % may be the effect or the level left"}, "[2]": {"experiment": "Immunomodulatory activity in anti-CD3/CD28-induced C57BL/6 mouse CD4+ T cells isolated from spleen/lymph nodes assessed as reduction in foxp3+ CD4+ IL2/TGF-beta induced T regulatory cells at 1 uM incubated for 72 hrs by fluorescence activated cell sorting analysis (reference value: 32.7 %)", "assay_type": "functional", "design": "scale not given: the % may be the effect or the level left"}, "CD4+ T cell [3]": {"tested_on": "CD4+ T cell", "experiment": "Immunomodulatory activity in anti-CD3/CD28-induced C57BL/6 mouse CD4+ T cells isolated from spleen/lymph nodes assessed as increase in IL2 mRNA expression in IL2/TGF-beta induced T regulatory cells measured after 72 hrs by RT-qPCR analysis", "assay_type": "functional, cell-based"}, "[4]": {"experiment": "Immunomodulatory activity in anti-CD3/CD28-induced C57BL/6 mouse CD4+ T cells isolated from spleen/lymph nodes assessed as reduction in foxp3+ CD4+ IL2/TGF-beta induced T regulatory cells at 4 uM incubated for 72 hrs by fluorescence activated cell sorting analysis (reference value: 32.7 %)", "assay_type": "functional", "design": "scale not given: the % may be the effect or the level left"}, "[5]": {"target": "T1, von Hippel-Lindau disease tumor suppressor/Forkhead box protein P3 (Homo sapiens) (UniProt P40337+Q9BZS1)", "T1 sequence (P40337 whole entry, looked up)": "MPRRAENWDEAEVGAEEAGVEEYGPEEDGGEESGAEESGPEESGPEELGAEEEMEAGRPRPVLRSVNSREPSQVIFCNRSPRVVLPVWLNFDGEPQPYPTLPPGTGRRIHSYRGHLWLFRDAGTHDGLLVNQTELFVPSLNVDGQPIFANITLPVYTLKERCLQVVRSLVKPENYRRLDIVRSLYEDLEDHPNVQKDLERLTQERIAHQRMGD", "T1 sequence (Q9BZS1 whole entry, looked up)": "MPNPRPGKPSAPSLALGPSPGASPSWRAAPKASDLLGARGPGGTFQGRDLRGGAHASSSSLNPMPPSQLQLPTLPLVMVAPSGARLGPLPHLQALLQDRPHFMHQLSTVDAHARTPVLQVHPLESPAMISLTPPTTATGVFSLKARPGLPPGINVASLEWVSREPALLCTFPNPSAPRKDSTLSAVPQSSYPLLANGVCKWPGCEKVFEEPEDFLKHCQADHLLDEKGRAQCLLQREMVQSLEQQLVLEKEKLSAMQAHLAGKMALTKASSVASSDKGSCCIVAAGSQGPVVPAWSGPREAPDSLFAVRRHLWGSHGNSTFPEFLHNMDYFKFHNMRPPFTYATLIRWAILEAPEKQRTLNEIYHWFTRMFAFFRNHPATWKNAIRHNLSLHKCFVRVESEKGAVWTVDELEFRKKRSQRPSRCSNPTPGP", "experiment": "PROTAC activity at VHL/Foxp3 (unknown origin) transfected in HEK293T cells assessed as induction of Foxp3 degradation by measuring reduction in protein level at 500 to 1000 nM incubated for 24 hrs by Western blot analysis", "assay_type": "cell-based", "details": "dose 500-1000 nM"}, "[6]": {"experiment": "Immunomodulatory activity in anti-CD3/CD28-induced C57BL/6 mouse CD4+ T cells isolated from spleen/lymph nodes assessed as reduction in foxp3+ CD4+ IL2/TGF-beta induced T regulatory cells at 4 uM incubated for 48 hrs by fluorescence activated cell sorting analysis (reference value: 6.56 %)", "assay_type": "functional", "design": "scale not given: the % may be the effect or the level left"}, "CD4+ T cell [7]": {"tested_on": "CD4+ T cell", "experiment": "Immunomodulatory activity in anti-CD3/CD28-induced C57BL/6 mouse CD4+ T cells isolated from spleen/lymph nodes assessed as reduction in Foxp3 protein expression in IL2/TGF-beta induced T regulatory cells at 1 to 4 uM measured after 72 hrs by Western blot analysis", "assay_type": "functional, cell-based", "details": "dose 1-4 µM"}, "[8]": {"experiment": "Immunomodulatory activity in anti-CD3/CD28-induced C57BL/6 mouse CD4+ T cells isolated from spleen/lymph nodes assessed as reduction in foxp3+ CD4+ IL2/TGF-beta induced T regulatory cells at 1 uM incubated for 48 hrs by fluorescence activated cell sorting analysis (reference value: 6.56 %)", "assay_type": "functional", "design": "scale not given: the % may be the effect or the level left"}, "[9]": {"target": "T1, von Hippel-Lindau disease tumor suppressor/Forkhead box protein P3 (Homo sapiens)", "experiment": "PROTAC activity at VHL/Foxp3 (unknown origin) transfected in HEK293T cells assessed as induction of Foxp3 degradation by measuring reduction in protein level at 1 uM measured after 24 to 48 hrs by Western blot analysis", "assay_type": "cell-based", "details": "time 24-48 hrs"}, "[10]": {"experiment": "Immunomodulatory activity in anti-CD3/CD28-induced C57BL/6 mouse CD4+ T cells isolated from spleen/lymph nodes assessed as reduction in foxp3+ CD4+ IL2/TGF-beta induced T regulatory cells at 2 uM incubated for 72 hrs by fluorescence activated cell sorting analysis (reference value: 32.7 %)", "assay_type": "functional", "design": "scale not given: the % may be the effect or the level left"}, "HEK293T [11]": {"tested_on": "HEK293T", "experiment": "Inhibition of HA-tagged Foxp3 (unknown origin) nuclear translocation transfected in a HEK293T cells at 1 to 3 uM incubated for 24 hrs by DAPI staining based confocal microscopic analysis", "assay_type": "cell-based", "details": "Homo sapiens, dose 1-3 µM"}, "CD4+ T cell [12]": {"tested_on": "CD4+ T cell", "experiment": "Immunomodulatory activity in anti-CD3/CD28-induced C57BL/6 mouse CD4+ T cells isolated from spleen/lymph nodes assessed as increase in IFN-gamma mRNA expression in IL2/TGF-beta induced T regulatory cells measured after 72 hrs by RT-qPCR analysis", "assay_type": "functional, cell-based"}, "[13]": {"target": "T1, von Hippel-Lindau disease tumor suppressor/Forkhead box protein P3 (Homo sapiens)", "experiment": "PROTAC activity at VHL/Foxp3 (unknown origin) transfected in HEK293T cells assessed as induction of Foxp3 degradation by measuring reduction in protein level at 3 uM incubated for 48 hrs in presence of MG132 by Western blot analysis", "assay_type": "cell-based"}, "HeLa": {"tested_on": "HeLa", "experiment": "Inhibition of HA-tagged Foxp3 (unknown origin) nuclear translocation transfected in human HeLa cells at 1 uM incubated for 24 hrs by DAPI staining based confocal microscopic analysis", "assay_type": "cell-based"}, "[14]": {"experiment": "Immunomodulatory activity in anti-CD3/CD28-induced C57BL/6 mouse CD4+ T cells isolated from spleen/lymph nodes assessed as reduction in foxp3+ CD4+ IL2/TGF-beta induced T regulatory cells at 3 uM incubated for 72 hrs by fluorescence activated cell sorting analysis (reference value: 32.7 %)", "assay_type": "functional", "design": "scale not given: the % may be the effect or the level left"}, "CD4+ T cell [15]": {"tested_on": "CD4+ T cell", "experiment": "Immunomodulatory activity in anti-CD3/CD28-induced C57BL/6 mouse CD4+ T cells isolated from spleen/lymph nodes assessed as reduction in Foxp3 mRNA expression in IL2/TGF-beta induced T regulatory cells measured after 72 hrs by RT-qPCR analysis", "assay_type": "functional, cell-based"}, "[16]": {"target": "T1, von Hippel-Lindau disease tumor suppressor/Forkhead box protein P3 (Homo sapiens)", "experiment": "PROTAC activity at VHL/Foxp3 (unknown origin) transfected in HEK293T cells assessed as induction of Foxp3 degradation by measuring reduction in protein level at 10 to 1000 nM incubated for 24 hrs by Western blot analysis", "assay_type": "cell-based", "details": "dose 10-1000 nM"}, "HEK293T [17]": {"tested_on": "HEK293T", "experiment": "Inhibition of HA-tagged Foxp3 (unknown origin) nuclear translocation transfected in a HEK293T cells at 50 to 100 uM incubated for 24 hrs by DAPI staining based confocal microscopic analysis", "assay_type": "cell-based", "details": "Homo sapiens, dose 50-100 µM"}},
  "note": "Calls of active or inactive are those of the source. The rule behind the calls is not given here. Residues, ends and D or L forms follow the SMILES beside them. *: point of attachment. X1 = Cc1ncsc1-c1ccc(CNC(=O)[C@@H]2C[C@@H](O)CN2C(=O)[C@@H](NC(=O)COCCOCCNC(=O)CCCCCc2cn(CCCC(=O)*)nn2)C(C)(C)C)cc1; X2 = Cc1ncsc1-c1ccc(CNC(=O)[C@@H]2C[C@@H](O)CN2C(=O)[C@@H](NC(=O)CCOCCOCCc2cn(CCCC(=O)*)nn2)C(C)(C)C)cc1; X3 = Cc1ncsc1-c1ccc(CNC(=O)[C@@H]2C[C@@H](O)CN2C(=O)[C@@H](NC(=O)CCCCCc2cn(CCCC(=O)*)nn2)C(C)(C)C)cc1",
  "data": [
    {"compound": "CSCC[C@H](NC(=O)[C@H](C)NC(=O)[C@H](Cc1ccccc1)NC(=O)[C@H](Cc1ccccc1)NC(=O)[C@@H]1CCCN1C(=O)[C@H](Cc1c[nH]c2ccccc12)NC(=O)[C@H](CCSC)NC(=O)[C@H](CCCCN)NC(=O)[C@H](CCCNC(=N)N)NC(=O)[C@H](Cc1ccccc1)NC(=O)[C@H](CO)NC(=O)[C@H](CCC(N)=O)NC(=O)[C@H](Cc1ccccc1)NC(=O)[C@H](CC(=O)O)NC(=O)[C@H](CCCNC(=N)N)NC(=O)CCCn1cc(CCCCCC(=O)NCCOCCOCC(=O)N[C@H](C(=O)N2C[C@H](O)C[C@H]2C(=O)NCc2ccc(-c3scnc3C)cc2)C(C)(C)C)nn1)C(N)=O", "note": "(X1-RDFQSFRKMWPFFAM-NH2)", "values": [
      {"measurement": "Activity", "setting": "[1]", "result": 5.03, "unit": "%"},
      {"measurement": "Activity", "setting": "[2]", "result": 28.8, "unit": "%"},
      {"measurement": "Activity", "setting": "CD4+ T cell [3]", "result": "Active"},
      {"measurement": "Activity", "setting": "[4]", "result": 15.6, "unit": "%"},
      {"measurement": "Activity", "setting": "[5]", "result": "Active"},
      {"measurement": "Activity", "setting": "[6]", "result": 4.87, "unit": "%"},
      {"measurement": "Activity", "setting": "CD4+ T cell [7]", "result": "Active"},
      {"measurement": "Activity", "setting": "[8]", "result": 6.08, "unit": "%"},
      {"measurement": "Activity", "setting": "[9]", "result": "Active"},
      {"measurement": "Activity", "setting": "[10]", "result": 25.8, "unit": "%"},
      {"measurement": "inhibition", "setting": "HEK293T [11]", "result": "Active; Comparable Effect To 100 Um Of P60 Peptide Observed At 1 Um"},
      {"measurement": "Activity", "setting": "CD4+ T cell [12]", "result": "Active"},
      {"measurement": "Activity", "setting": "[13]", "result": "inactive"},
      {"measurement": "inhibition", "setting": "HeLa", "result": "Active"},
      {"measurement": "Activity", "setting": "[14]", "result": 20.2, "unit": "%"},
      {"measurement": "Activity", "setting": "CD4+ T cell [15]", "result": "Active"}
    ]},
    {"compound": "CSCC[C@H](NC(=O)[C@H](C)NC(=O)[C@H](Cc1ccccc1)NC(=O)[C@H](Cc1ccccc1)NC(=O)[C@@H]1CCCN1C(=O)[C@H](Cc1c[nH]c2ccccc12)NC(=O)[C@H](CCSC)NC(=O)[C@H](CCCCN)NC(=O)[C@H](CCCNC(=N)N)NC(=O)[C@H](Cc1ccccc1)NC(=O)[C@H](CO)NC(=O)[C@H](CCC(N)=O)NC(=O)[C@H](Cc1ccccc1)NC(=O)[C@H](CC(=O)O)NC(=O)[C@H](CCCNC(=N)N)NC(=O)CCCn1cc(CCOCCOCCC(=O)N[C@H](C(=O)N2C[C@H](O)C[C@H]2C(=O)NCc2ccc(-c3scnc3C)cc2)C(C)(C)C)nn1)C(N)=O", "note": "(X2-RDFQSFRKMWPFFAM-NH2)", "values": [
      {"measurement": "inhibition", "setting": "HeLa", "result": "inactive"},
      {"measurement": "Activity", "setting": "[16]", "result": "inactive"}
    ]},
    {"compound": "CSCC[C@H](NC(=O)[C@H](C)NC(=O)[C@H](Cc1ccccc1)NC(=O)[C@H](Cc1ccccc1)NC(=O)[C@@H]1CCCN1C(=O)[C@H](Cc1c[nH]c2ccccc12)NC(=O)[C@H](CCSC)NC(=O)[C@H](CCCCN)NC(=O)[C@H](CCCNC(=N)N)NC(=O)[C@H](Cc1ccccc1)NC(=O)[C@H](CO)NC(=O)[C@H](CCC(N)=O)NC(=O)[C@H](Cc1ccccc1)NC(=O)[C@H](CC(=O)O)NC(=O)[C@H](CCCNC(=N)N)NC(=O)CCCn1cc(CCCCCC(=O)N[C@H](C(=O)N2C[C@H](O)C[C@H]2C(=O)NCc2ccc(-c3scnc3C)cc2)C(C)(C)C)nn1)C(N)=O", "note": "(X3-RDFQSFRKMWPFFAM-NH2)", "values": [
      {"measurement": "inhibition", "setting": "HeLa", "result": "inactive"},
      {"measurement": "Activity", "setting": "[16]", "result": "inactive"}
    ]},
    {"compound": "H-RDFQSFRKMWPFFAM-OH", "values": [
      {"measurement": "inhibition", "setting": "HEK293T [17]", "result": "Active"}
    ]}
  ]
}
